Measurements from US10836763B2, “5 to 7 membered heterocyclic amides as JAK inhibitors” (priority 2018, dated 2020).
Where two headings read alike, the source gives them in different places.

Key:
[1] = Lung and plasma drug concentration in the murine IL-13 pSTAT6 model; format: in vivo; details: mouse, other: oral aspiration, 50 µg/mouse; for Kp at 5 h: Balb/c, lung ng/g to plasma ng/mL at 5 hours, mice, oral aspiration, read-out: Lung to Plasma ratio at 5 hr; for concentration at 5 h: Balb/c mice, 1 mg/mL, 50 μL oral aspiration, 5 hr post dose
Method: (§1) Assay 3: Murine (Mouse) Model of IL-13 Induced pSTAT6 Induction in Lung Tissue
Adult Balb/c mice from Harlan were used in the assay. […] Animals were placed in lateral recumbency post dose and monitored for full recovery from anesthesia before being returned to their home cage. Four hours later, animals were once again briefly anesthetized and challenged with either vehicle or IL-13 (0.03 μg total dose delivered, 50 μL total volume) via oral aspiration before being monitored for recovery from anesthesia and returned to their home cage. One hour after vehicle or IL-13 administration, whole blood and lungs were collected for both pSTAT6 detection in lung homogenates using a Perkin Elmer AlphaLISA® SureFire® Ultra™ HV p-STAT6 (Tyr641) assay kit and for total drug concentration analysis in both lung and plasma. Blood samples were centrifuged (Eppendorf centrifuge, 5804R) for 4 minutes at approximately 12,000 rpm at 4° C. to collect plasma. […] Plasma and lung levels of test compound were determined by LC-MS analysis against analytical standards constructed into a standard curve in the test matrix. A lung to plasma ratio was determined as the ratio of the lung concentration in ng/g to the plasma concentration in ng/mL at 5 hours.

[2] = target: Tyk2 (Homo sapiens (Human), UniProt P29597); assay: Biochemical JAK kinase assay (LanthaScreen), Tyk2
Method: (§2) Assay 1: Biochemical JAK Kinase Assays
(§3) A panel of four LanthaScreen JAK biochemical assays (JAK1, 2, 3 and Tyk2) were carried in a common kinase reaction buffer (50 mM HEPES, pH 7.5, 0.01% Brij-35, 10 mM MgCl2, and 1 mM EGTA). Recombinant GST-tagged JAK enzymes and a GFP-tagged STAT1 peptide substrate were obtained from Life Technologies.
(§4) Serially diluted compounds were pre-incubated with each of the four JAK enzymes and the substrate in white 384-well microplates (Corning) at ambient temperature for 1 h. ATP was subsequently added to initiate the kinase reactions in 10 μL total volume, with 1% DMSO. […] Kinase reactions were allowed to proceed for 1 hour at ambient temperature before a 10 μL preparation of EDTA (10 mM final concentration) and Tb-anti-pSTAT1 (pTyr701) antibody (Life Technologies, 2 nM final concentration) in TR-FRET dilution buffer (Life Technologies) was added. The plates were allowed to incubate at ambient temperature for 1 h before being read on the EnVision reader (Perkin Elmer). Emission ratio signals (520 nm/495 nm) were recorded and utilized to calculate the percent inhibition values based on DMSO and background controls.
(§5) For dose-response analysis, percent inhibition data were plotted vs. compound concentrations, and IC50 values were determined from a 4-parameter robust fit model with the Prism software (GraphPad Software). Results were expressed as pIC50 (negative logarithm of IC50) and subsequently converted to pKi (negative logarithm of dissociation constant, Ki) using the Cheng-Prusoff equation.

[3] = Lung S9 metabolism; format: in vitro ADME, human; details: for Compound Remaining at 60 min (%) / microsomal CLint at 1 µM: human lung S9, 1 μM compound, 1 mg/mL S9 protein, NADPH and PAPS; for microsomal CLint at 1 µM: lung S9 fraction, pH 7.4, read-out: Clearance; for Sulfate Appearance: qualitative, O-sulfate metabolite peak in human lung S9
Method: Assay 5: Lung S9 Metabolism […] Lung S9 fractions from human (lot 1410245) were purchased from XenoTech LLC (Lenexa, Kans.). NADPH (Sigma Aldrich, N1630) and 3-phosphoadenosine 5-phosphosulfate (PAPS) (Sigma Aldrich, A1651) were purchased from Sigma Aldrich (St. Louis, Mo.). Acetonitrile and water were obtained from VWR (Radnor, Pa.) and were of HPLC grade or better. Raloxifene and formic acid was purchased from Sigma Aldrich (St. Louis, Mo.). Lung S9 incubations were performed in a water bath at 37° C. in a 96-well polypropylene plate. […] All samples were centrifuged at 2250 g for 10 minutes at 5° C. Supernatant (50 μL) was taken from the centrifuged samples and diluted into 100 μL HPLC water containing internal standard. […] Mobile Phase A consisted of Water+0.2% formic acid and Mobile Phase B consisted of acetonitrile+0.2% formic acid. Peak integration was accomplished using Gubbs GMSU software (Gubbs Inc., Alpharetta, Ga.). For each sample, peak area ratios were calculated by dividing the analyte peak area by the internal standard peak area. […] Determination of sulfate metabolite formation was made qualitatively by observation of early-eluting peak in the parent ion channel which, based on historical internal data, corresponded to the O-sulfate metabolite of each parent compound.

[4] = target: JAK3 (Homo sapiens (Human), UniProt P52333); format: biochemical
Method: as §2, §3, §4, §5

[5] = system: IL-13 induced pSTAT6 in lung tissue; assay: Murine model of IL-13 induced pSTAT6 induction in lung tissue; format: in vivo, mouse; details: Balb/c mice, 1 mg/mL, 50 μL oral aspiration; IL-13 challenge 4 hours after compound; lung homogenate
Method: as §1
IL-13 binds to cell surface receptors activating members of the Janus family of kinases (JAK) which then phosphorylate STAT6 and subsequently activates further transcription pathways. In the described model, a dose of IL-13 was delivered locally into the lungs of mice to induce the phosphorylation of STAT6 (pSTAT6) which is then measured as the endpoint.
Activity in the model is evidenced by a decrease in the level of pSTAT6 present in the lungs of treated animals at 5 hours compared to the vehicle treated, IL-13 challenged control animals. The difference between the control animals which were vehicle-treated, IL-13 challenged and the control animals which were vehicle-treated, vehicle challenged dictated the 0% and 100% inhibitory effect, respectively, in any given experiment.

[6] = lung, read-out: Lung Concentration (ng/g) at 5 hr
[7] = plasma, read-out: Plasma Concentration (ng/mL) at 5 hr
[8] = ATP at Km 10 μM, pIC50 converted with Cheng-Prusoff

Chain of Tyk2 (P29597 whole entry): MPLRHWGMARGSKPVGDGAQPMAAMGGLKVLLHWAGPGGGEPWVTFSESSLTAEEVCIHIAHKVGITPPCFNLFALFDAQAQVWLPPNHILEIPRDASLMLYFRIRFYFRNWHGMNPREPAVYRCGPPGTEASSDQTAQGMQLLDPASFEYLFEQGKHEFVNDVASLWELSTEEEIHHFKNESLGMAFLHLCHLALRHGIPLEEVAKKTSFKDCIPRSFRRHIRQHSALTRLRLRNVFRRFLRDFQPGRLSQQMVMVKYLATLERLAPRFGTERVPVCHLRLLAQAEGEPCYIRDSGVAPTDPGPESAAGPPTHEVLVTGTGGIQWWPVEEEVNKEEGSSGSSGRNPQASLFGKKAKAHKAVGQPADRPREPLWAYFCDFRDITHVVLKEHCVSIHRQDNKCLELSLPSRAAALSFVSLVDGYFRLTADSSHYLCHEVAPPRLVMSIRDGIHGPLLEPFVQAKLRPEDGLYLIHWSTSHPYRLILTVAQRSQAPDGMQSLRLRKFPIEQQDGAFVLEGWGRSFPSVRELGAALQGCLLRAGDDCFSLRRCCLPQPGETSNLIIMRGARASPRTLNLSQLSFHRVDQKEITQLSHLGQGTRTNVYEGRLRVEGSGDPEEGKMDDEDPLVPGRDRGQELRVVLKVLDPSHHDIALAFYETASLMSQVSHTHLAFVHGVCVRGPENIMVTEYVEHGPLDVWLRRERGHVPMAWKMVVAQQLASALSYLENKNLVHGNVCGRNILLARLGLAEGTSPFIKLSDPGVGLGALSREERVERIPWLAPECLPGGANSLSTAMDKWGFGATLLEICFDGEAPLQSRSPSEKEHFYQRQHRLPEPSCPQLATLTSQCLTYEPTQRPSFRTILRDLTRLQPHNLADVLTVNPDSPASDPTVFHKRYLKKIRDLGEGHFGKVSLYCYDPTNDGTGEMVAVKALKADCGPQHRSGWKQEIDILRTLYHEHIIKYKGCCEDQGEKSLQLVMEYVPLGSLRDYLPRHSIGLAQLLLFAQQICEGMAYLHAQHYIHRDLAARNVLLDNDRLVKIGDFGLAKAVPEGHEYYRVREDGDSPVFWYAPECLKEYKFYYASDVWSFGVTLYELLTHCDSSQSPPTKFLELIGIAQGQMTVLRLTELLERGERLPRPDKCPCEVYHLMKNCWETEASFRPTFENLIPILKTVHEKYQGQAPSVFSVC
Chain of JAK3 (P52333 whole entry): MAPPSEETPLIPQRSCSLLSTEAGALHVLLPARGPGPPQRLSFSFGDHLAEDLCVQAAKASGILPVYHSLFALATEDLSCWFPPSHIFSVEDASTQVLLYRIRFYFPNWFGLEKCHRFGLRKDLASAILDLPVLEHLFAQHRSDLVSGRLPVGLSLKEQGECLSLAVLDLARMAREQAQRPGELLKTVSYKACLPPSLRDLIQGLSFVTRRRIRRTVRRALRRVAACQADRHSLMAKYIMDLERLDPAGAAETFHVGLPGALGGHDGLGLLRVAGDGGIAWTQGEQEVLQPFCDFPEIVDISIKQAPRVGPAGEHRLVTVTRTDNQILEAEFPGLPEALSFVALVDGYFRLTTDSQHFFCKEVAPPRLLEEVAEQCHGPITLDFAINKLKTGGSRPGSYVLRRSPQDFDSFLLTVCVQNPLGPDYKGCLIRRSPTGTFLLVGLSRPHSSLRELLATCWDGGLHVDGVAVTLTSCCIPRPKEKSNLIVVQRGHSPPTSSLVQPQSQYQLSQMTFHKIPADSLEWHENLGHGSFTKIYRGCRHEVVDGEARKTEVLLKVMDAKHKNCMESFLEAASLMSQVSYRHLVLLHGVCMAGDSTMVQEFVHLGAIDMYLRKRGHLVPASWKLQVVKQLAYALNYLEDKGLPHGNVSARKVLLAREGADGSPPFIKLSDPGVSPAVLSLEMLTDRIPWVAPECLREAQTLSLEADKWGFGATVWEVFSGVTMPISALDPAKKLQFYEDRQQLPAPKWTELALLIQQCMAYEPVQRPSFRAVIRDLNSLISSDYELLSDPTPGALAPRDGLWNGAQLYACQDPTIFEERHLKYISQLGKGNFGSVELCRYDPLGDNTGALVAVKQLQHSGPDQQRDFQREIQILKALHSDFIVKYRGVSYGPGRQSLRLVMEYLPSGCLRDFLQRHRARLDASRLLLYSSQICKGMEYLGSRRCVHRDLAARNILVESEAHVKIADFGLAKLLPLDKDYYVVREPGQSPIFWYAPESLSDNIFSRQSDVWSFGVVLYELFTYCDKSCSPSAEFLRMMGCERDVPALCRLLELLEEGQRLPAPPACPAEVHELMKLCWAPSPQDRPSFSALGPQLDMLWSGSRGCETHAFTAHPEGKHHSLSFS

Compound | Kp at 5 h [1] | concentration at 5 h [1, 6] | concentration at 5 h [1, 7] | Tyk2 pKi [2, 8] | Compound Remaining at 60 min (%) [3] | microsomal CLint at 1 µM [3] | Sulfate Appearance [3] | JAK3 PKi ([4]; ATP at Km 1.6 μM, pIC50 converted with Cheng-Prusoff) | pSTAT6 inhibition at 5 hours [5] | Tyk2 pKi [2] | JAK3 PKi [4]
CCCN1Cc2[nH]c(-c3n[nH]c4cc(-c5ccc(O)cc5CC)ccc34)nc2C[C@H]1C(=O)N1C[C@@H]2C[C@H]1CN2C [Compound 2, ((S)-2-(6-(2-ethyl-4-hydroxyphenyl)-1H-indazol-3-yl)-5-propyl-4,5,6,7-tetrahydro-3H-imidazo[4,5-c]pyridin-6-yl)((1S,4S)-5-methyl-2,5-diazabicyclo[2.2.1]heptan-2-yl)methanone] | 1340 | 23400 ± 12500 ng/g | 17.5 ± 25 ng/mL | 8.9 | 81% | 3.5 µL/min/mg | Yes | 9.8 | 72% | – | –
CCc1cc(O)ccc1-c1ccc2c(-c3nc4c([nH]3)CN(C)[C@H](C(=O)N3CCN(CCO)C[C@H]3C)C4)n[nH]c2c1 [Compound 5, ((S)-2-(6-(2-ethyl-4-hydroxyphenyl)-1H-indazol-3-yl)-5-methyl-4,5,6,7-tetrahydro-3H-imidazo[4,5-c]pyridin-6-yl)((R)-4-(2-hydroxyethyl)-2-methylpiperazin-1-yl)methanone] | 418 | 5440 ± 1860 ng/g | 13 ± 3.7 ng/mL | – | 80% | 3.7 µL/min/mg | Yes | – | 73% | 9.2 | 10.1
CCc1cc(O)ccc1-c1ccc2c(-c3nc4c([nH]3)CN(C(C)C)[C@H](C(=O)N3CC[C@H](N(C)C)C3)C4)n[nH]c2c1 [Compound 6, ((S)-3-(dimethylamino)pyrrolidin-1-yl)((S)-2-(6-(2-ethyl-4-hydroxyphenyl)-1H-indazol-3-yl)-5-isopropyl-4,5,6,7-tetrahydro-3H-imidazo[4,5-c]pyridin-6-yl)methanone] | 1030 | 11600 ± 4680 ng/g | 11.3 ± 5.7 ng/mL | – | 82% | 3.4 µL/min/mg | Yes | – | 37% | 9.0 | 10.0
CCCN1Cc2[nH]c(-c3n[nH]c4cc(-c5cc(F)c(O)cc5CC)ccc34)nc2C[C@H]1C(=O)N1CCN(CCO)CC1 [Compound C-1, (S)-(2-(6-(2-ethyl-5-fluoro-4-hydroxyphenyl)-1H-indazol-3-yl)-5-propyl-4,5,6,7-tetrahydro-3H-imidazo[4,5-c]pyridin-6-yl)(4-(2-hydroxyethyl)piperazin-1-yl)methanone, reference compound] | – | – | – | 9.1 | 29% | 20.8 µL/min/mg | Yes | – | – | – | 9.7
CCCN1Cc2[nH]c(-c3n[nH]c4cc(-c5cc(F)c(O)cc5CC)ccc34)nc2C[C@H]1C(=O)N1C[C@@H]2C[C@H]1CN2C [Compound C-2, ((S)-2-(6-(2-ethyl-5-fluoro-4-hydroxyphenyl)-1H-indazol-3-yl)-5-propyl-4,5,6,7-tetrahydro-3H-imidazo[4,5-c]pyridin-6-yl)((1S,4S)-5-methyl-2,5-diazabicyclo-[2.2.1]heptan-2-yl)methanone, reference compound] | – | – | – | 9.5 | 3% | 61 µL/min/mg | Yes | – | – | – | 9.9
CCc1cc(O)c(F)cc1-c1ccc2c(-c3nc4c([nH]3)CN(C)[C@H](C(=O)N3CCN(C)C[C@@H]3C)C4)n[nH]c2c1 [Compound C-3, ((S)-2,4-dimethylpiperazin-1-yl)((S)-2-(6-(2-ethyl-5-fluoro-4-hydroxyphenyl)-1H-indazol-3-yl)-5-methyl-4,5,6,7-tetrahydro-3H-imidazo[4,5-c]pyridin-6-yl)methanone, reference compound] | – | – | – | 9.3 | 14% | 33.2 µL/min/mg | Yes | – | – | – | 9.7
CCc1cc(O)c(F)cc1-c1ccc2c(-c3nc4c([nH]3)CN(C(C)C)[C@H](C(=O)N3CCCN(C)CC3)C4)n[nH]c2c1 [Compound C-4, (S)-(2-(6-(2-ethyl-5-fluoro-4-hydroxyphenyl)-1H-indazol-3-yl)-5-isopropyl-4,5,6,7-tetrahydro-3H-imidazo[4,5-c]pyridin-6-yl)(4-methyl-1,4-diazepan-1-yl)methanone, reference compound] | – | – | – | 9.3 | 4% | 53.4 µL/min/mg | Yes | – | – | – | 9.8
CCc1cc(O)c(F)cc1-c1ccc2c(-c3nc4c([nH]3)CN(C)[C@H](C(=O)N3CCN(CCO)C[C@H]3C)C4)n[nH]c2c1 [Compound C-5, ((S)-2-(6-(2-ethyl-5-fluoro-4-hydroxyphenyl)-1H-indazol-3-yl)-5-methyl-4,5,6,7-tetrahydro-3H-imidazo[4,5-c]pyridin-6-yl)((R)-4-(2-hydroxyethyl)-2-methyl-piperazin-1-yl)methanone, reference compound] | – | – | – | 9.5 | 8% | 42.2 µL/min/mg | Yes | – | – | – | 9.9
